Measurements published in patent US20250177372A1, “LIQUID FORMULATIONS OF INDACATEROL AND GLYCOPYRRONIUM” (AeroRx Therapeutics, Inc., priority 2022, published 2025).
Counter-ions that a name gives are not always drawn. Values belong to the compound of their own block, whether it stands above or below them.

Tests used:
Format in all cases: physicochemical
[1] = Aqueous solubility of indacaterol and indacaterol maleate in water (orbital shaker, UV-Vis); conditions: for pH after dissolution / Solubility: water, initial pH 7.1; for Solubility: shaken 12 hours, UV-Vis
Procedure: Solubility studies of indacaterol and indacaterol maleate were performed using an orbital shaker method. Excess indacaterol was placed in a glass vial with water. The initial pH of the water was 7.1. Samples were shaken for 12 hours to ensure equilibrium was reached. After the 12 hour period, the vial was removed from the shaker and allowed to settle for 30 minutes. Then, the sample was filtered using a 0.2 μM polyvinylidene fluoride (PVDF) syringe filter; the initial 0.5 mL of filtrate was discarded. The pH was then measured and the concentration of the indacaterol was evaluated by UV-Vis.

[2] = Forced degradation study of indacaterol (RP-HPLC impurities); conditions: for Total Impurities* (%): includes 2% process-related impurity
Procedure: A degraded sample panel was prepared to identify indacaterol degradation pathways and products. Stress conditions are outlined in Table 1.
One of 6N HCl, 6N NaOH, or 30% H2O2 (aqueous) were added to a suitable volume of 100 μg/mL indacaterol and diluted with water:methanol (50:50, v:v) to achieve a final indacaterol concentration of 10 μg/mL. Samples were stored at ambient temperature. At specified time points, acidic and basic hydrolysis (1 N HCl and 1 N NaOH, respectively) samples were neutralized (H2O2 samples were not quenched) and reversed-phase high performance liquid chromatography (RP-HPLC) was used to quantitate indacaterol impurities. All samples were diluted to 5 μg/mL prior to RP-HPLC analysis. Method parameters are outlined in Table 2.
Total impurities (process-related and product-related) of the indacaterol forced degradation study samples are presented in Table 3. Forced degradation impurity peaks were identified based on their retention time relative (RRT) to the indacaterol peak. Impurity peaks already present in the indacaterol (control group at T0; total peak area approximately 2%) were considered process-related, while additional peaks formed after the degradation were considered product-related.

[3] = Aqueous solubility of indacaterol with varying pH in citrate buffer (orbital shaker, UV-Vis); conditions: aqueous citrate buffer 5 mM
Procedure: Solubility studies of indacaterol in solutions of varying pH were performed using an orbital shaker method. Excess indacaterol was placed in a glass vial with an aqueous citrate buffer (5 mM; prepared from citric acid and NaOH). Samples were shaken for 12 to 24 hours to ensure equilibrium was reached before checking and adjusting the pH (using 1 M HCl and NaOH) and placing samples back into the orbital shaker for an additional 12 hours. This process was repeated up to two times or until the desired pH was obtained. After the desired pH was reached, the vial was removed from the shaker and allowed to settle for 30 minutes. Then, the sample was filtered using a 0.2 μM PVDF syringe filter; the initial 0.5 mL of filtrate was discarded. The pH was then measured and the concentration of the indacaterol was evaluated by UV-Vis.

[4] = Acidic Hydrolysis (1M HCl), 15 h, ambient temperature
[5] = Basic Hydrolysis (1M NaOH), 15 h, ambient temperature

pH after dissolution [1]: 3.30
Solubility [1]: 230 µg/mL
Structure (SMILES): CCc1cc2c(cc1CC)CC(NC[C@H](O)c1ccc(O)c3[nH]c(=O)ccc13)C2 [Indacaterol maleate, indacaterol maleate]

Total Peak Area (%) ([2]; Acidic Hydrolysis (1M HCl), 15 h): 99.79%
Indacaterol (%) [2, 4]: 92.54%
Total Impurities* (%) [2, 4]: 7.25%
Indacaterol (%), Change in % peak ([2]; Acidic Hydrolysis (1M HCl), 15 h vs T0): −3.27%
Indacaterol (%) ([2]; Acidic Hydrolysis (1M HCl), T0): 95.81%
Total Peak Area (%) ([2]; Acidic Hydrolysis (1M HCl), T0): 99.82%
Total Impurities* (%) ([2]; Acidic Hydrolysis (1M HCl), T0): 4.01%
Total Peak Area (%) ([2]; Basic Hydrolysis (1M NaOH), 15 h): 99.75%
Indacaterol (%) [2, 5]: 92.06%
Total Impurities* (%) [2, 5]: 7.69%
Indacaterol (%), Change in % peak ([2]; Basic Hydrolysis (1M NaOH), 15 h vs T0): −3.76%
Indacaterol (%) ([2]; Basic Hydrolysis (1M NaOH), T0): 95.82%
Total Peak Area (%) ([2]; Basic Hydrolysis (1M NaOH), T0): 99.81%
Total Impurities* (%) ([2]; Basic Hydrolysis (1M NaOH), T0): 3.99%
Total Peak Area (%) ([2]; Control, T0): 99.85%
Indacaterol (%) ([2]; Control, T0, 10 μg/mL in MeOH:H2O (50:50), ambient temperature): 98.04%
Total Impurities* (%) ([2]; Control, T0): 1.81%
Indacaterol (%) ([2]; Oxidation (1.2% H2O2), 7 h): 97.03%
Total Peak Area (%) ([2]; Oxidation (1.2% H2O2), 7 h): 99.89%
Total Impurities* (%) ([2]; Oxidation (1.2% H2O2), 7 h): 2.77%
Indacaterol (%) ([2]; Oxidation (1.2% H2O2), 29 h): 90.76%
Total Peak Area (%) ([2]; Oxidation (1.2% H2O2), 29 h): 99.59%
Total Impurities* (%) ([2]; Oxidation (1.2% H2O2), 29 h): 8.83%
Total Impurities* (%) ([2]; Oxidation (1.2% H2O2), 29 h, listed as indacaterol): approximately 9%
Indacaterol (%), Change in % peak ([2]; Oxidation (1.2% H2O2), 29 h vs 7 h): −6.27%
degradation of indacaterol samples in aqueous solutions over time (FIG. 1) ([2]; forced degradation experiment, staggered chromatogram): minimal degradation
dependence of indacaterol solubility on pH [3]: increase with decreasing pH
solubility in water ([1]; water at pH 7.1): insoluble
pH after dissolution [1]: 6.20
Solubility [1]: < 1 µg/mL
Structure (SMILES): CCc1cc2c(cc1CC)CC(NC[C@H](O)c1ccc(O)c3[nH]c(=O)ccc13)C2 [Indacaterol, (R)-5-[2-(5,6-Diethylindan-2-ylamino)-1-hydroxyethyl]-8hydroxy-1H-quinolin-2-one]
